Values quoted from earlier work, collected in patent US7498301B2, “Composition containing dipeptide of histidine and alanine for reducing uric acid and method for reducing uric acid using the dipeptide” (Lytone Enterprise, Inc., priority 2003, dated 2009).

How the values were obtained:
[1] = low pH (<3.0)
[2] = tested on: peptidase and proteases excreted from pancreas or other digestive organs

Stability under low pH [1]: remain intact | Digestion by peptidase and proteases [2]: resist against digestion
SMILES: NCCC(=O)N[C@@H](Cc1cnc[nH]1)C(=O)O [carnosine, β-alanyl-L-histidine]
